Columns and labels:
[1] = test system: Aspergillus niger ATCC 6275; assay: Paper disk method, enhancing action for activities of azole antifungal agents; type: cell-based; settings: 48 hours; for Inhibition activity (inhibition ring mm) A. niger ATCC 6275 GYF / Transparency of the inhibition ring A. niger ATCC 6275 GYF: fluconazole 10 μg/ml
Method: (§1) Test organisms used were Candida albicans ATCC 64548, fluconazole resistant Candida albicans ATCC 64550 and Aspergillus niger ATCC 6275. Candida spp. were cultured in Waksman broth (glucose 2.0%, peptone 0.5%, dry yeast 0.3%, meat extract 0.5%, NaCl 0.5% and CaCO3 0.3%, pH 7.0) at 27° C. for 40 hours, then 0.1% thereof was inoculated on GY agar medium (glucose 1.0%, yeast extract 0.5% and agar 0.8%, pH 6.0). Spore suspension 0.2% of Aspergillus niger ATCC 6275 was inoculated on GY agar medium.
(§2) Azole antifungal agents used were miconazole (Sigma Inc., the U.S.) and fluconazole (ICN Pharmaceuticals, Inc., the U.S.), and were added at concentrations without affecting growth on each test organisms follows.
Aspergillus niger ATCC 6275: miconazole 0.1 μg/ml or fluconazole 10 μg/ml.
(§3) In the above medium, a medium added with miconazole to GY medium (control) is designated as GYM, and a medium added with fluconazole is designated as GYF. Activities were assessed by means of paper disk method (thickness: 8 mm, ADVANTEC MFS INC., Japan). Diameter of inhibition ring is expressed with mm unit after culturing Candida spp. for 24 hours and Aspergillus niger ATCC 6275 for 48 hours. Transparency of the inhibition ring is assessed with 5 degrees of A, B, C, D and E (transparence<A<B<C<D<E<opaque).

[2] = test system: Candida albicans ATCC 64548; assay: as above; type: cell-based; settings: 24 hours; for Inhibition activity (inhibition ring mm) C. albicans ATCC 64548 GYM / Transparency of the inhibition ring C. albicans ATCC 64548 GYM: miconazole 0.03 μg/ml
Method: as §1, §2
Candida albicans ATCC 64548: miconazole 0.03 μg/ml or fluconazole 0.5 μg/ml.
as §3

[3] = 100 μg/8 mm disk, GYM, miconazole 0.1 μg/ml
[4] = 50 μg/8 mm disk, GY medium (control, no azole)
[5] = 100 μg/8 mm disk, GYF, fluconazole 0.5 μg/ml

SMILES	Inhibition activity (inhibition ring mm) A. niger ATCC 6275 GYF ([1]; 50 μg/8 mm disk) [mm]	Transparency of the inhibition ring A. niger ATCC 6275 GYF ([1]; 50 μg/8 mm disk)	Inhibition activity (inhibition ring mm) C. albicans ATCC 64548 GYM ([2]; 100 μg/8 mm disk) [mm]	Transparency of the inhibition ring C. albicans ATCC 64548 GYM ([2]; 100 μg/8 mm disk)	Inhibition activity (inhibition ring mm) A. niger ATCC 6275 GYM [1, 3] [mm]	Transparency of the inhibition ring A. niger ATCC 6275 GYM [1, 3]	Inhibition activity (inhibition ring mm) C. albicans ATCC 64548 GYM ([2]; 10 μg/8 mm disk) [mm]	Transparency of the inhibition ring C. albicans ATCC 64548 GYM ([2]; 10 μg/8 mm disk)	Inhibition activity (inhibition ring mm) C. albicans ATCC 64548 GYM ([2]; 50 μg/8 mm disk) [mm]	Transparency of the inhibition ring C. albicans ATCC 64548 GYM ([2]; 50 μg/8 mm disk)	Inhibition activity (inhibition ring mm) A. niger ATCC 6275 GY [1, 4] [mm]	Transparency of the inhibition ring A. niger ATCC 6275 GY [1, 4]	Inhibition activity (inhibition ring mm) C. albicans ATCC 64548 GYF [2, 5] [mm]	Transparency of the inhibition ring C. albicans ATCC 64548 GYF [2, 5]	Inhibition activity (inhibition ring mm) A. niger ATCC 6275 GYF ([1]; 10 μg/8 mm disk) [mm]	Transparency of the inhibition ring A. niger ATCC 6275 GYF ([1]; 10 μg/8 mm disk)
CCC1OC(=O)C(C)C(OC2CC(C)(OC)C(O)C(C)O2)C(C)C(OC2OC(C)CC(N(C)CCN(C)C3CC(C)OC(OC4C(C)C(OC5CC(C)(OC)C(O)C(C)O5)C(C)C(=O)OC(CC)C(C)(O)C(O)C(C)C(=O)C(C)CC4(C)O)C3O)C2O)C(C)(O)CC(C)C(=O)C(C)C(O)C1(C)O (stereo not drawn) [Compound 752, 3′-de-N-methyl-3′-N-{2-amino-(3′-de-N-methyl-erythromycin A)}ethyl-erythromycin A]	17	E (Growth of test organism was inhibited 35% or less.)	12	E (Growth of test organism was inhibited 35% or less.)												
CCC1OC(=O)C(C)C(OC2CC(C)(OC)C(O)C(C)O2)C(C)C(OC2OC(C)CC(N(C)CCN(C)C3CC(C)OC(OC4C(C)C(OC5CC(C)(OC)C(O)C(C)O5)C(C)C(=O)OC(CC)C(C)(O)C(O)C(C)C(=O)C(C)CC4(C)OC)C3O)C2O)C(C)(OC)CC(C)C(=O)C(C)C(O)C1(C)O (stereo not drawn) [Compound 753, 3′-de-N-methyl-3′-N-{2-amino-(3′-de-N-methyl-clarythromycin A)}ethyl-clarythromycin]					13	E (Growth of test organism was inhibited 35% or less.)	17	C (Growth of test organism was inhibited 55% or more and 75% or less.)	22	C (Growth of test organism was inhibited 55% or more and 75% or less.)						
CCC1OC(=O)C(C)C(OC2CC(C)(OC)C(O)C(C)O2)C(C)C(OC2OC(C)CC(N(C)CC=CCN(C)C3CC(C)OC(OC4C(C)C(OC5CC(C)(OC)C(O)C(C)O5)C(C)C(=O)OC(CC)C(C)(O)C(O)C(C)C(=O)C(C)CC4(C)O)C3O)C2O)C(C)(O)CC(C)C(=O)C(C)C(O)C1(C)O (stereo not drawn) [Compound 757, 3′-de-N-methyl-3′-N-{4-amino-(3′-de-N-methyl-erythromycin A)}-2(E) -butenyl-erythromycin A]			18	D (Growth of test organism was inhibited 35% or more and 55% or less.)							10	E (Growth of test organism was inhibited 35% or less.)	17	E (Growth of test organism was inhibited 35% or less.)		
CCC1OC(=O)C(C)C(OC2CC(C)(OC)C(O)C(C)O2)C(C)C(OC2OC(C)CC(N(C)C)C2O)C(C)(O)CC(C)C(=NOCC=CCN2CCN(CC=CCON=C3C(C)CC(C)(O)C(OC4OC(C)CC(N(C)C)C4O)C(C)C(OC4CC(C)(OC)C(O)C(C)O4)C(C)C(=O)OC(CC)C(C)(O)C(O)C3C)CC2)C(C)C(O)C1(C)O (stereo not drawn) [Compound 760, 9(E)-4-piperazine-{N-4-(9(E)-oxime-erythromycin A-2(E)butenyl)}-2-butenyloxime-erythromycin A]	16	E (Growth of test organism was inhibited 35% or less.)					10	E (Growth of test organism was inhibited 35% or less.)	14	D (Growth of test organism was inhibited 35% or more and 55% or less.)					15	E (Growth of test organism was inhibited 35% or less.)

Source: patent publication US20050176655A1, “Novel macrolide derivatives havaing effect of potentiating antifungal activity” (priority 2002, published 2005)
